Measured values published in ChEMBL document CHEMBL1201862, “PubChem BioAssay data set” (2004).
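Growth conditions: 96-well plates. Treatment: test compound, 48 hours, 5 concentrations. Analysis: linear interpolation between bracketing concentrations; unreached endpoints set to highest concentration. Here, GI50 denotes the concentration required for 50% inhibition of growth.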 Active and inactive are the calls of the source. Rule as the data show it: active = GI50 up to about 1.1 µM and inactive = higher.

Key:
Test in all cases: DTP human tumour cell line panel, 48 h
[1] = system: 786-0
[2] = system: A498
[3] = system: A549
[4] = system: ACHN
[5] = system: BT-549
[6] = system: CAKI-1
[7] = system: CCRF-CEM
[8] = system: COLO 205
[9] = system: DU-145
[10] = system: EKVX
[11] = system: HCC 2998
[12] = system: HCT-116
[13] = system: HCT-15
[14] = system: HL-60
[15] = system: HOP-62
[16] = system: HOP-92
[17] = system: HT-29
[18] = system: Hs-578T
[19] = system: IGROV-1
[20] = system: K562
[21] = system: KM12
[22] = system: LOX IMVI
[23] = system: M14
[24] = system: MCF7
[25] = system: MDA-MB-231
[26] = system: MDA-MB-435
[27] = system: MDA-N
[28] = system: MOLT-4
[29] = system: Malme-3M
[30] = system: NCI-H226
[31] = system: NCI-H23
[32] = system: NCI-H460
[33] = system: NCI-H522
[34] = system: NCI/ADR-RES
[35] = system: OVCAR-3
[36] = system: OVCAR-4
[37] = system: OVCAR-5
[38] = system: OVCAR-8
[39] = system: PC-3
[40] = system: RPMI-8226
[41] = system: RXF 393
[42] = system: SF-268
[43] = system: SF-295
[44] = system: SK-MEL-28
[45] = system: SK-MEL-2
[46] = system: SK-MEL-5
[47] = system: SK-OV-3
[48] = system: SN12C
[49] = system: SNB-19
[50] = system: SNB-75
[51] = system: SR
[52] = system: SW-620
[53] = system: T47D
[54] = system: TK-10
[55] = system: U-251
[56] = system: UACC-257
[57] = system: UACC-62
[58] = system: UO-31
[59] = system: SF-539

With `C/C(Cl)=N/OC(=O)Nc1ccc(S(N)(=O)=O)c(C)c1` the GI50 [1] was 2.03 µM (inactive), the GI50 [2] was 18.2 µM (inactive) and the GI50 [3] was 17.5 µM (inactive). For the same compound, the GI50 [4] was 2.15 µM (inactive), the GI50 [5] was 12.3 µM (inactive) and the GI50 [6] was 1.83 µM (inactive). For the same compound, the GI50 [7] was 1.07 µM (active), the GI50 [8] was 2.17 µM (inactive) and the GI50 [9] was 16.6 µM (inactive). For the same compound, the GI50 [10] was 5.75 µM (inactive), the GI50 [11] was 18.4 µM (inactive) and the GI50 [12] was 12 µM (inactive). The GI50 [13] was 2.02 µM, the GI50 [14] was 1.42 µM (inactive) and the GI50 [15] was 19.9 µM (inactive). For the same compound, the GI50 [16] was 2 µM (inactive), the GI50 [17] was 17.8 µM (inactive) and the GI50 [18] was 43.4 µM (inactive). For the same compound, the GI50 [19] was 15.4 µM (inactive), the GI50 [20] was 1.34 µM (inactive) and the GI50 [21] was 18.6 µM (inactive). The GI50 [22] was 2.27 µM (inactive), the GI50 [23] was 9.14 µM (inactive) and the GI50 [24] was 5.38 µM (inactive). For the same compound, the GI50 [25] was 8.26 µM (inactive), the GI50 [26] was 15.1 µM (inactive) and the GI50 [27] was 11.7 µM (inactive). The GI50 [28] was 1.5 µM (inactive), the GI50 [29] was 2.08 µM (inactive) and the GI50 [30] was 23.6 µM (inactive). For the same compound, the GI50 [31] was 18.1 µM (inactive), the GI50 [32] was 39.9 µM (inactive) and the GI50 [33] was 1.45 µM (inactive). For the same compound, the GI50 [34] was 14.1 µM (inactive), the GI50 [35] was 4.46 µM (inactive) and the GI50 [36] was 15.5 µM (inactive). The GI50 [37] was 18.3 µM (inactive), the GI50 [38] was 24.7 µM (inactive) and the GI50 [39] was 18.3 µM (inactive). The GI50 [40] was 1.95 µM (inactive), the GI50 [41] was 16.9 µM (inactive) and the GI50 [42] was 26.1 µM (inactive). For the same compound, the GI50 [43] was 21 µM (inactive), the GI50 [44] was 13.6 µM (inactive) and the GI50 [45] was 18.6 µM (inactive). The GI50 [46] was 12.9 µM (inactive), the GI50 [47] was > 43.5 µM (inactive) and the GI50 [48] was 13.4 µM (inactive). The GI50 [49] was 18.1 µM (inactive), the GI50 [50] was 19 µM (inactive) and the GI50 [51] was 1.86 µM (inactive). The GI50 [52] was 2.38 µM (inactive), the GI50 [53] was 2.92 µM (inactive) and the GI50 [54] was 5.58 µM (inactive). For the same compound, the GI50 [55] was 18.5 µM (inactive), the GI50 [56] was 14.7 µM (inactive) and the GI50 [57] was 15.7 µM (inactive). The GI50 [58] was 14.9 µM (inactive).

`Cc1c(Cc2ccccc2)c(Cc2ccccc2)c(C)[s+]1[O-]` was tested, and the GI50 [1] was 22.9 µM (inactive), the GI50 [2] was 24.5 µM (inactive) and the GI50 [3] was 30.2 µM (inactive). The GI50 [4] was 32.7 µM (inactive), the GI50 [5] was 33.2 µM (inactive) and the GI50 [6] was 22.7 µM (inactive). The GI50 [7] was 19.1 µM (inactive), the GI50 [8] was 20.5 µM (inactive) and the GI50 [9] was 38.3 µM (inactive). The GI50 [10] was 18.4 µM (inactive), the GI50 [11] was 19.6 µM (inactive) and the GI50 [12] was 24.1 µM (inactive). For the same compound, the GI50 [13] was 31.3 µM, the GI50 [14] was 12.5 µM (inactive) and the GI50 [15] was 50.4 µM (inactive). For the same compound, the GI50 [16] was 27.4 µM (inactive), the GI50 [17] was 16.7 µM (inactive) and the GI50 [18] was 37.8 µM (inactive). The GI50 [19] was 36.8 µM (inactive), the GI50 [20] was 21.2 µM (inactive) and the GI50 [21] was 17.3 µM (inactive). The GI50 [22] was 20.7 µM (inactive), the GI50 [23] was 21.2 µM (inactive) and the GI50 [24] was 20.3 µM (inactive). The GI50 [25] was 19.2 µM (inactive), the GI50 [26] was 17.7 µM (inactive) and the GI50 [27] was 24.6 µM (inactive). For the same compound, the GI50 [28] was 14.7 µM (inactive), the GI50 [29] was 33.2 µM (inactive) and the GI50 [31] was 28.3 µM (inactive). For the same compound, the GI50 [32] was 27.5 µM (inactive), the GI50 [33] was 23.7 µM (inactive) and the GI50 [34] was 19.7 µM (inactive). For the same compound, the GI50 [35] was 30.8 µM (inactive), the GI50 [36] was 23.7 µM (inactive) and the GI50 [37] was 20.1 µM (inactive). The GI50 [38] was 41.3 µM (inactive), the GI50 [39] was 18.8 µM (inactive) and the GI50 [40] was 19.7 µM (inactive). For the same compound, the GI50 [41] was 20.6 µM (inactive), the GI50 [42] was 51.1 µM (inactive) and the GI50 [43] was 30.1 µM (inactive). The GI50 [59] was 45.2 µM (inactive), the GI50 [44] was 30.3 µM (inactive) and the GI50 [45] was 16.9 µM (inactive). For the same compound, the GI50 [46] was 15.6 µM (inactive), the GI50 [47] was 40.3 µM (inactive) and the GI50 [48] was 26.5 µM (inactive). For the same compound, the GI50 [49] was 47.1 µM (inactive), the GI50 [50] was 20 µM (inactive) and the GI50 [51] was 19.8 µM (inactive). The GI50 [52] was 26.4 µM (inactive), the GI50 [53] was 12.9 µM (inactive) and the GI50 [54] was 26.1 µM (inactive). The GI50 [55] was 25.6 µM (inactive), the GI50 [56] was 19.7 µM (inactive) and the GI50 [57] was 14.5 µM (inactive). For the same compound, the GI50 [58] was 31.7 µM (inactive).
